For the experiment, the target named is T1, GluDH-BS (Bacillus subtilis, UniProt P12310).
T1 construct: gene gdh; full length, plasmid pHGBS, overexpressed in B. subtilis 168 (strain BS), crude cell-free extract
Description: NADPH formation at […] nm, crude extract. The experiment is classed as biochemical. The following applies: glucose, CPB buffer, 37 °C; turnover only.

Structures are written as SMILES.

T1 sequence (P12310 whole entry): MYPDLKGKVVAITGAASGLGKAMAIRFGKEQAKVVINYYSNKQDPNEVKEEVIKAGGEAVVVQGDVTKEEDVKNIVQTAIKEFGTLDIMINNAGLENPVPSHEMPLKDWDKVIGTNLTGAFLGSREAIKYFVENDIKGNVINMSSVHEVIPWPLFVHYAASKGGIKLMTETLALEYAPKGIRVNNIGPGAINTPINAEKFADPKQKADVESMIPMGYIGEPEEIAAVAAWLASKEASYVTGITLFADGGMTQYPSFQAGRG

`NC(=O)c1ccc[n+]([C@@H]2O[C@H](COP(=O)(O)OP(=O)(O)OC[C@H]3O[C@@H](n4cnc5c(N)ncnc54)[C@H](OP(=O)(O)O)[C@@H]3O)[C@@H](O)[C@H]2O)c1` [NADP^+]: the “NADPH formation at 340 nm, crude extract” value is “crude GluDH-BS (closed circle) and GluDH-BA (open circle) when using NADP^+ as a cofactor”.

Source of the values: publication PMC4633474, “Kinetic properties and stability of glucose dehydrogenase from Bacillus amyloliquefaciens SB5 and its potential for cofactor regeneration” (AMB Express, 2015).
